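48-hour exposure; five concentrations; linearly interpolated endpoints. GI50: concentration for 50% inhibition of growth.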 Calls of active or inactive are those of the source. No stated cut-off is given here; in the data, active = GI50 up to about 1.1 µM and inactive = higher.
Experiments:
Experiment in all cases: DTP human tumour cell line panel, 48 h
BT-549 = tested on: BT-549
MOLT-4 = tested on: MOLT-4
HOP-92 = tested on: HOP-92
HT-29 = tested on: HT-29
ACHN = tested on: ACHN
HCC 2998 = tested on: HCC 2998
A549 = tested on: A549
NCI/ADR-RES = tested on: NCI/ADR-RES
COLO 205 = tested on: COLO 205
NCI-H460 = tested on: NCI-H460
SK-OV-3 = tested on: SK-OV-3
PC-3 = tested on: PC-3
SK-MEL-28 = tested on: SK-MEL-28
SF-539 = tested on: SF-539
NCI-H522 = tested on: NCI-H522
MDA-MB-435 = tested on: MDA-MB-435
SF-268 = tested on: SF-268
KM12 = tested on: KM12
UACC-257 = tested on: UACC-257

| Compound | GI50 (BT-549) | GI50 (MOLT-4) | GI50 (HOP-92) | GI50 (HT-29) | GI50 (ACHN) | GI50 (HCC 2998) | GI50 (A549) | GI50 (NCI/ADR-RES) | GI50 (COLO 205) | GI50 (NCI-H460) | GI50 (SK-OV-3) | GI50 (PC-3) | GI50 (SK-MEL-28) | GI50 (SF-539) | GI50 (NCI-H522) | GI50 (MDA-MB-435) | GI50 (SF-268) | GI50 (KM12) | GI50 (UACC-257) |
| --- | --- | --- | --- | --- | --- | --- | --- | --- | --- | --- | --- | --- | --- | --- | --- | --- | --- | --- | --- |
| COc1ccc(-n2c(=O)n(C)c(=O)n2-c2c(C)c(C)c(C)c(C)c2C)cc1 | > 100 µM (inactive) | > 100 µM (inactive) | > 100 µM (inactive) | > 100 µM (inactive) | > 100 µM (inactive) | > 100 µM (inactive) | > 100 µM (inactive) | > 100 µM (inactive) | > 100 µM (inactive) | > 100 µM (inactive) | > 100 µM (inactive) | > 100 µM (inactive) | > 100 µM (inactive) | > 100 µM (inactive) | > 100 µM (inactive) | > 100 µM (inactive) | > 100 µM (inactive) | > 100 µM (inactive) | > 100 µM (inactive) |
| C/C(=N/CC(=O)O)c1ccccc1 | 61 µM (inactive) | 70.5 µM (inactive) | > 100 µM (inactive) | > 100 µM (inactive) | > 100 µM (inactive) | 39.8 µM (inactive) | > 100 µM (inactive) | > 100 µM (inactive) | > 100 µM (inactive) | > 100 µM (inactive) | > 100 µM (inactive) | > 100 µM (inactive) | > 100 µM (inactive) | > 100 µM (inactive) | 34.8 µM (inactive) | > 100 µM (inactive) | > 100 µM (inactive) | > 100 µM (inactive) | > 100 µM (inactive) |
| C[C@H](CCC(=O)O)[C@H]1CC[C@H]2[C@@H]3[C@H](O)C[C@@H]4C[C@H](O)CC[C@]4(C)[C@H]3C[C@H](O)[C@]12C | > 100 µM (inactive) | > 100 µM (inactive) | > 100 µM (inactive) | > 100 µM (inactive) | > 100 µM (inactive) | > 100 µM (inactive) | > 100 µM (inactive) | > 100 µM (inactive) | > 100 µM (inactive) | > 100 µM (inactive) | > 100 µM (inactive) | > 100 µM (inactive) | > 100 µM (inactive) | > 100 µM (inactive) | > 100 µM (inactive) | > 100 µM (inactive) | > 100 µM (inactive) | > 100 µM (inactive) | > 100 µM (inactive) |
| Cn1c(-c2ccc[se]2)ccc1-c1ccc(C=O)[se]1 | 17.1 µM (inactive) | 7.43 µM (inactive) | 10.5 µM (inactive) | 10.8 µM (inactive) | 46.6 µM (inactive) | 2.47 µM (inactive) | 23.3 µM (inactive) | 2.16 µM (inactive) | 16.3 µM (inactive) | 0.308 µM (active) | 16.6 µM (inactive) | 56.9 µM (inactive) | 42.1 µM (inactive) | 3.89 µM (inactive) | 16.4 µM (inactive) | 11.4 µM (inactive) | 16.4 µM (inactive) | > 100 µM (inactive) | 0.796 µM (active) |
| Cc1cn(C2CC(N)C(CN)O2)c(=O)[nH]c1=O (configuration not stated) | > 100 µM (inactive) | > 100 µM (inactive) | > 100 µM (inactive) | > 100 µM (inactive) | > 100 µM (inactive) | > 100 µM (inactive) | > 100 µM (inactive) | > 100 µM (inactive) | > 100 µM (inactive) | > 100 µM (inactive) | > 100 µM (inactive) | > 100 µM (inactive) | > 100 µM (inactive) | > 100 µM (inactive) | > 100 µM (inactive) | > 100 µM (inactive) | > 100 µM (inactive) | > 100 µM (inactive) | > 100 µM (inactive) |
| O=C(Cc1ccccc1)NCCc1ccc(O)c(O)c1 | 82.8 µM (inactive) | 16.6 µM (inactive) | > 100 µM (inactive) | > 100 µM (inactive) | 64.4 µM (inactive) | > 100 µM (inactive) | > 100 µM (inactive) | > 100 µM (inactive) | > 100 µM (inactive) | > 100 µM (inactive) | > 100 µM (inactive) | > 100 µM (inactive) | > 100 µM (inactive) | > 100 µM (inactive) | 28.4 µM (inactive) | 17.9 µM (inactive) | 63.1 µM (inactive) | > 100 µM (inactive) | > 100 µM (inactive) |
| COc1ccc(/C=C2\N=C(N3CCCCC3)NC2=O)cc1 | > 100 µM (inactive) | > 100 µM (inactive) | > 100 µM (inactive) | > 100 µM (inactive) | > 100 µM (inactive) | > 100 µM (inactive) | > 100 µM (inactive) | > 100 µM (inactive) | > 100 µM (inactive) |  | > 100 µM (inactive) | > 100 µM (inactive) | > 100 µM (inactive) | 54 µM (inactive) | 57.4 µM (inactive) | > 100 µM (inactive) | > 100 µM (inactive) | 52.1 µM (inactive) | > 100 µM (inactive) |

Source: ChEMBL document CHEMBL1201862, “PubChem BioAssay data set” (2004)
